Data on 8 compounds can be found in ChEMBL document CHEMBL5329179, “Inhibitory effect of γ-ray-modified hydroxymethylated baicalins on NO production” (Bioorg Med Chem Lett, 2023).

In brackets after ≈: the same amount, converted by molar mass. Activity calls are given as the source filed them. The rule behind the calls is not given here.

Holding throughout (format): functional, cell-based
Assay [1] concerns RAW264.7. Nature of the assay: Antiinflammatory activity against LPS-stimulated mouse RAW264.7 cells assessed as reduction in iNOS mRNA expression level at 20 uM by qRT-PCR analysis. (Quantitative PCR measures a nucleic acid by following its amplification.)
Assay [2] concerns RAW264.7. Nature of the assay: Antiinflammatory activity against LPS-stimulated mouse RAW264.7 cells assessed as reduction in NO production.
A short description of assay [3]: Antiinflammatory activity against LPS-stimulated dog DH82 cells assessed as reduction in NO production. The settings on record: Canis lupus familiaris.
A further assay relates to DH82. The experiment in a line: Antiinflammatory activity against LPS-stimulated dog DH82 cells assessed as reduction in iNOS mRNA expression level at 20 uM by qRT-PCR analysis. The settings on record: Canis lupus familiaris.
For assay [4], the system named is RAW264.7. Nature of the assay: Antiinflammatory activity against mouse RAW264.7 cells assessed as reduction in NO production compound photoirradiated using 50 kGy gamma-ray. The settings on record: RAW264.7, light or radiation study.

One may read the IC50 as the concentration needed to halve the response being measured. Consider `O=C1C[C@@](CO)(c2ccccc2)Oc2cc(O[C@@H]3O[C@H](C(=O)O)[C@@H](O)[C@H](O)[C@H]3O)c(O)c(O)c21`, for which the outcome in the assay with RAW264.7 [1] and in the assay with DH82 was Active. Moreover, the half-inhibitory concentration (IC50) in the assay with RAW264.7 [2] turned out to be 18.9 µM; in assay [3], 19.1 µM.

On to `N=C(N)NN` [PIMAGEDINE], for which the half-maximal inhibitory concentration (IC50) in the assay with RAW264.7 [2] is 24.5 µM; in assay [3] it was 21 µM.

`O=C(O)[C@H]1O[C@@H](Oc2cc3oc(-c4ccccc4)cc(=O)c3c(O)c2O)[C@H](O)[C@@H](O)[C@@H]1O` [BAICALIN]: the IC50 is 35.2 µg/mL (≈ 78.9 µM) with RAW264.7 [4], 157 µM with RAW264.7 [2] and more than 200 µM in assay [3]. Moreover, the outcome with RAW264.7 [1] and in the assay with DH82 was Active.

`O=C1C[C@](CO)(c2ccccc2)Oc2cc(O[C@@H]3O[C@H](C(=O)O)[C@@H](O)[C@H](O)[C@H]3O)c(O)c(O)c21`: the outcome in the assay on RAW264.7 [1] and with DH82 was Active. The IC50 was 22.7 µM in the assay on RAW264.7 [2] and 24.9 µM in assay [3].

As to `O=c1cc(-c2ccccc2)oc2cc(O)c(O)c(O)c12` [BAICALEIN], the IC50 in the assay with RAW264.7 [2] worked out at 30.4 µM; in assay [3], 31.2 µM.

For the compound `COc1c(O)cc2oc(-c3ccccc3)cc(=O)c2c1O` [OROXYLIN A], the IC50 in the assay on RAW264.7 [2] amounted to 48.9 µM; in assay [3] it was 50.6 µM.

As for `O=C1C[C@](CO)(c2ccccc2)Oc2cc3c(c(O)c21)OOC3`, the IC50 (in the assay with RAW264.7 [2]; in assay [3]) was more than 200 µM each time.

Turning to `O=C(O)[C@H]1O[C@@H](Oc2cc3c(c(O)c2O)C(=O)[C@@H](CO)[C@](CO)(c2ccccc2)O3)[C@H](O)[C@@H](O)[C@@H]1O`, the half-maximal inhibitory concentration (IC50) in the assay on RAW264.7 [2] was 68 µM; in assay [3] it was 57.5 µM.
